Laboratory results from article PMC5786306, “An AKAP-Lbc-RhoA interaction inhibitor promotes the translocation of aquaporin-2 to the plasma membrane of renal collecting duct principal cells” (PLoS ONE, 2018).
“Also recorded” adds a separate entry of the source.

Assays:
[1] = system: AKAP-Lbc-mediated activation of RhoA in HEK293 cells; experiment: SRE luciferase reporter assay, AKAP-Lbc expressed; assay type: cell-based, human; settings: Scaff10
Procedure: Luciferase reporter gene assays were performed with the Dual Luciferase Reporter Assay System (Promega) according to manufactures protocol and as previously reported. In brief, HEK293 cells were seeded and co-transfected with the indicated plasmids together with pSRE.L reporter plasmid encoding firefly luciferase (kindly provided from Dr J. Mao and Dr. D. Wu, Rochester, NY) and pRL-TK control vector (Promega, Mannheim, Germany) encoding renilla luciferase. The transfected cells were further cultured in DMEM with 0.5% FCS for 24 h, lysed with passive lysis buffer (Promega). Luciferase activities was measured an Envision Instrument (Perkin Elmer, Rodgau, Germany) in white 96-well plates. […] In Western blots, the protein was detected with primary polyclonal antibody (rabbit; Gramsch, 1:1000). […] AKAP-Lbc was detected with a specific anti-AKAP-Lbc antibody (Abcam; #ab99377; 1:1000). […]
Fig 7 Scaff10-8 inhibits the AKAP-Lbc-mediated activation of RhoA in cells. […] Statistically significant differences were determined applying one-way ANOVA with posthoc Bonferroni. […]
in luciferase activity induced by other GEFs. n=3; statistically significant differences were not found, as confirmed by statistical analysis using ANOVA. […] The fraction of active RhoA was determined using Rhotekin pulldown assays as described. […]

[2] = system: Cdc42 activity in IMCD cells; experiment: PAK-1-PBD pull down, Cdc42; assay type: cell-based, rat; settings: 30 μM, 1 h
Procedure: (§1) The (p21) binding domain (PBD) of p21 activated kinase 1 protein (PAK-1) spans amino acids 67–150 of PAK-1 and binds specifically to the GTP-bound Rac-1 and Cdc42. The PBD was prepared as described and used for selective precipitation of the activated GTPases from IMCD cells. The PBD was expressed as a GST-fusion protein in DH5α E-coli cells, the cells were lysed using a French press, and the fusion protein was purified with Glutathione Sepharose 4 Fast Flow GST-tagged protein purification resin kit according to the manufacturer’s instructions (GE Healthcare; #17-5132-01). The PAK-1-PBD pull down was carried out with 400–500 μg protein from IMCD cell lysates. Proteins were eluted from the beads by boiling with Laemmli sample buffer, and analyzed by Western blotting. The membranes were first probed for Cdc42, and the GTP-bound active fraction of the protein was related to total Cdc42, and to the loading control GAPDH. The membranes were re-probed for Rac-1 accordingly to determine the active GTP-bound Rac-1 fraction.
(§2) Fig 10 Scaff10-8 inhibits activation of RhoA in primary IMCD cells. IMCD cells were incubated with Scaff10-8 (30 μM, 1 h). DMSO (1%), the solvent of Scaff10-8, served as a control. […] Signals were semiquantitatively analyzed by densitometry. […] Statistically significant differences were determined using one-way ANOVA with posthoc Bonferroni. […]

[3] = system: Rac1 activity in IMCD cells; experiment: PAK-1-PBD pull down, Rac1; assay type: cell-based, rat; settings: 30 μM, 1 h
Procedure: as §1, §2

Row | Compound | AKAP-Lbc-mediated activation of RhoA (SRE luciferase activity) [1] | activity of Cdc42 [2] | activity of Rac1 [3]
1 | COc1ccc(-c2coc3cc4oc(=O)c(C)c(C)c4cc23)cc1 [Scaff10, 3-(4-Methoxyphenyl)-5,6-dimethyl-furo[3,2-g]chromen-7-one] | selectively inhibited; also recorded: concentration-dependently inhibits | – | –
2 | COc1ccc(-c2coc3cc4oc(=O)c(CCC(=O)O)c(C)c4cc23)cc1 [Scaff10-8, 3-[3-(4-Methoxyphenyl)-5-methyl-7-oxo-furo[3,2-g]chromen-6-yl] propanoic acid] | – | did not influence activities | did not influence activities
